Data: US20130072459A1, “PHARMACEUTICAL COMPOSITION FOR THE PREVENTION OR THE TREATMENT OF NON-ALCOHOLIC FATTY LIVER DISEASE AND THE METHOD FOR PREVENTION OR TREATMENT OF NON-ALCOHOLIC FATTY LIVER DISEASE USING THE SAME” (priority 2010, published 2013)

Columns and labels:
[1] = system: high fat diet-induced simple steatosis; test: Non-alcoholic fatty liver-preventing effects on high fat diet-induced simple steatosis in mice (oral, 28 days); type: in vivo, C57BL/6 mice; conditions: for Triglyceride increase inhibition (%) relative to high fat diet-fed group / Triglyceride increment (%) relative to standard diet-fed group: 28 days, high fat diet; for lipid droplets in liver tissue sample (histological evaluation), result in words: HE staining, FIG. 8; for maximum decrement of the hepatic triglyceride content relative to the high fat diet-fed group: maximum over the doses tested
Procedure: 7-week old male C57BL/6 mice were stabilized and then divided into 9 groups (n=9) according to the body weight and blood glucose level. A standard diet-fed group and a high fat diet-fed group were orally administered a vehicle solution (0.5% MC (methylene cellulose)) of each diet once a day at a dose of 10 ml/kg, and the remaining groups were orally given once a day for 28 days a high fat diet in conjunction with tartrate of Compound 1 at doses of 30, 100 and 300 mg/kg, sitagliptin phosphate at doses of 100 and 300 mg/kg, and vildagliptin at doses of 100 mg/kg and 300 mg/kg, respectively, according to the designated groups. 24 hours after the final oral administration, animals were dissected and the excised liver was homogenized in a 5(v/v) % Triton-X solution to which a triglyceride working reagent was then added, followed by measurement of an absorbance at 540 nm to determine the content of triglyceride (Table 2). In addition, a portion of the excised liver was fixed in a 10(v/v) % formalin solution and then a tissue sample was prepared, followed by hematoxylin & eosin(HE) staining and photographing (FIG. 8).

TGF-β1 = TGF-β1 mRNA expression in liver, CCl4-induced acute hepatic damage mouse model; type: in vivo, C57BL/6 mice; conditions: for TGF-β1 expression inhibition rate (% CCl4 control group) / TGF-β1 expression (normalized by actin): 3 days; for TGF-β1 expression (normalized by actin): CCl4 0.1 ml/kg i.p.; for maximum decrement in TGF-β1 mRNA expression of the liver relative to the CCl4 control group: maximum over the doses tested; for expression of TGF-β1 mRNA of the liver, result in words: vs CCl4 group
Procedure: In order to investigate inhibitory effects of compounds of the present invention on expression of TGF-β1 which is known to play a crucial role in a fibrosis process of hepatocytes in a CCl4-induced acute hepatic damage mouse model, the following experiment was carried out. 7-week old male C57BL/6 mice were stabilized and divided into 9 groups (n=7) according to the body weight, followed by intraperitoneal administration of CCl4 (0.1 ml/kg). The normal control group was administered an olive oil. The control group was orally administered a vehicle solution (0.5% MC) once a day at a dose of 10 ml/kg, at intervals of 24 hours for 3 days. The remaining groups were orally administered once a day tartrate of Compound 1 at doses of 30, 100 and 300 mg/kg, sitagliptin phosphate (prepared according to the method described in WO2004/085378 or WO2005/003135) at doses of 100 and 300 mg/kg, and vildagliptin (Trademax, China) at doses of 100 and 300 mg/kg, respectively, according to the designated groups. 1 hour after the final oral administration, animals were dissected and the excised liver was subjected to evaluation of TGF-β1 mRNA expression. The liver tissue stored in liquid nitrogen was homogenized in a TRIZOL solution and then the total RNAs were extracted. The isolated RNAs were diluted to a concentration of 1 μg/μL in 0.1(v/v) % DEPC (diethyl pyrocarbonate), and then the RNA mixture [2 μg/μL each RNA+2 μL of 0.5 μg/μL oligo d(T)15+up to 15 μL of 0.1% DEPC water] was incubated using a PCR apparatus at 72° C. for 5 minutes, followed by quenching on ice. The mixture [1 μL of PCR nucleotide mix+5 μL of 5×MMLV RT bf.(Promega, M531A)+1 μL of […] M-MLV reverse] was prepared, and then subjected to elongation at 42° C. for 60 minutes, denaturation at 95° C. for 5 minutes and quenching at 8° C. to synthesize cDNAs which were stored at −20° C. until subsequent use. In order to carry out RT-PCR, the mixture [1 μL of 20 pmol each Primer+9.5 μL of Nuclease-free water] was prepared and then 2 μL of each cDNA was placed in sterile PCR tubes to which 12.5 μL of remix Taq™ (RR003A, TaKaRa) was then added, followed by mixing. PCR was carried out under the following conditions (Table 4), using Thermal Cycler (PTC-200, MJ Research). PCT products were electrophoresed and analyzed using an Image Analyzer (Vilber Lourmat). Using β-actin expression, the expression of a target gene TGF-β1 was subjected to normalization (FIG. 11).

HepG2 cells = test: Free fatty acid-induced intracellular fat accumulation, Nile Red staining; type: cell-based, human; conditions: for free fatty acid-induced fat accumulation in hepatocytes, result in words: FIG. 10; for inhibition at 1 µM: Homo sapiens, HepG2, 0.5 mM free fatty acid, 24 hours, read-out: inhibitory effects on free fatty acid-induced fat accumulation
Procedure: By a combined treatment of free fatty acid and a drug, inhibitory effects of individual drugs on intracellular fat accumulation were quantified using a triglyceride staining method. The human hepatoma cell line, HepG2 cells were cultured in a minimum essential medium (MEM) containing 10(v/v) % fetal bovine serum for 48 hours. […] For the negative control group, a MEM containing 1(v/v) % bovine serum albumin was treated with 0.1(v/v) % dimethyl sulfoxide with no addition of free fatty acid. After the culture was complete, the medium was removed and the cells were washed with a phosphate buffer. […] After the staining was complete, the supernatant was discarded and replaced with a phosphate buffer, followed by measurement of fluorescence intensities under conditions of a 488 nm excitation wavelength and a 550 nm emission wavelength. Then, in order to correct a deviation according to the cell count, a phosphate buffer containing 10 μM resazurin (Sigma) dissolved therein was added to the same well. Thereafter, before and after the reaction at 37° C. for 1 hour under light-shielded conditions, fluorescence intensities were measured using a fluorometer under conditions of a 535 nm excitation wavelength and a 580 nm emission wavelength, whereby an increase in fluorescence intensity due to resorufin reduced and formed by the intracellular mitochondrial activity was measured. Using the value of a fluorescence intensity of Nile Red corrected in terms of an increase in fluorescence intensity due to the reduction of resazurin, the experimental results were expressed as a percentage for the fat accumulation increased by a treatment with free fatty acid, as compared to the negative control group.

Compound	Triglyceride increase inhibition (%) relative to high fat diet-fed group ([1]; 100 mg/kg oral once a day)	Triglyceride increment (%) relative to standard diet-fed group ([1]; 100 mg/kg oral once a day)	Triglyceride increase inhibition (%) relative to high fat diet-fed group ([1]; 300 mg/kg oral once a day)	Triglyceride increment (%) relative to standard diet-fed group ([1]; 300 mg/kg oral once a day)	lipid droplets in liver tissue sample (histological evaluation), result in words [1]	maximum decrement of the hepatic triglyceride content relative to the high fat diet-fed group [1]	TGF-β1 expression inhibition rate (% CCl4 control group) (TGF-β1; 100 mg/kg oral once a day)	TGF-β1 expression (normalized by actin) (TGF-β1; 100 mg/kg oral once a day)	TGF-β1 expression inhibition rate (% CCl4 control group) (TGF-β1; 300 mg/kg oral once a day)	TGF-β1 expression (normalized by actin) (TGF-β1; 300 mg/kg oral once a day)	maximum decrement in TGF-β1 mRNA expression of the liver relative to the CCl4 control group (TGF-β1)	expression of TGF-β1 mRNA of the liver, result in words (TGF-β1)	free fatty acid-induced fat accumulation in hepatocytes, result in words (HepG2 cells)	inhibition at 1 µM (HepG2 cells)	Triglyceride increase inhibition (%) relative to high fat diet-fed group ([1]; 30 mg/kg oral once a day)	Triglyceride increment (%) relative to standard diet-fed group ([1]; 30 mg/kg oral once a day)	TGF-β1 expression inhibition rate (% CCl4 control group) (TGF-β1; 30 mg/kg oral once a day)	TGF-β1 expression (normalized by actin) (TGF-β1; 30 mg/kg oral once a day)
N[C@@H](CC(=O)N1CCn2c(nnc2C(F)(F)F)C1)Cc1cc(F)c(F)cc1F [sitagliptin phosphate, sitagliptin]	61%	21%	15%	45%	reduction of lipid droplets	61%	41%	1.13 ± 0.19	−17%	1.26 ± 0.13	41%	decreased expression	dose-dependent inhibition	28.7 ± 3.2%				
CC(C)(C)OC[C@@H]1C(=O)NCCN1C(=O)C[C@H](N)Cc1cc(F)c(F)cc1F [tartrate of Compound 1, (R)-4-[(R)-3-amino-4-(2,4,5-trifluorophenyl)-butanoyl]-3-(t-butoxymethyl)piperazin-2-one]	12%	47%	81%	11%	reduction of lipid droplets	81%	128%	0.93 ± 0.10	100%	1.00 ± 0.13	135%	normalization	dose-dependent inhibition	28.7 ± 3.2%	34%	35%	135%	0.92 ± 0.13
